Experimental data as given in patent US20150265682A1, “THERAPEUTIC METHODS AND COMPOSITIONS FOR TREATING DIABETES” (Orient Europharma Co., Ltd., priority 2014, published 2015).

What was measured:
Format in all cases: in vivo, ICR mice
[1] = system: IR, Akt, AS160, GLUT2 and PEPCK in liver of mice with type 1 DM; test: Western blot of insulin signaling pathway in liver after 7-day borapetoside A; conditions: type 1 DM mice; 10 mgkg^−1 twice a day for 7 days
Method: (§1) After three days of acclimatization, the mice had free access to a standard rodent chow (normal mice), a standard rodent chow after single […] streptozotocin (STZ) intraperitoneal injection (T1DM mice), and a fat-rich chow diet and fructose-sweetened water (T2DM mice) for 4 weeks. The induction of Type 1 DM was assessed and confirmed when the mice had plasma glucose levels ≧350 mgdL^−1, accompanied with polyuria, hyperphagia and decreased body weight. The induction Type 2 DM in the mice was assessed by measuring fasting plasma glucose levels and confirmed when plasma glucose level was ≧150 mgdL^−1 after the 4-week induction. The animals were assigned randomly into three groups, with seven animals in each group. In group I, the mice were treated with vehicle, 2% DMSO in normal saline, as the negative control. In group II, the mice were intraperitoneally treated with borapetoside A (0.1-10 mgkg^−1). In group Ill, the positive control, the mice received intraperitoneally metformin (300 mgkg^−1; Sigma Chemical Co., St. Louis, Mo., U.S.A.) or insulin (0.5 IUkg^−1; Insulin Actrapid® HM; Novo Nordisk, Denmark). In the acute study, mice under anesthesia received a single intraperitoneal administration of borapetoside A, negative control, or positive control. In the subacute study, mice received intraperitoneal administrations of borapetoside A, vehicle, or insulin twice a day for seven days.
Western blot analysis was carried out by known methods with a slight modification. Briefly, tissues were homogenized in T-PER® Tissue Protein Extraction Reagent (Pierce Biotechnology, Rockford, Ill.) with Halt™ Protease Inhibitor Single-Use Cocktail (Pierce Biotechnology, Rockford, Ill.). Liver homogenates were prepared by mechanical homogenization (Polytron PT3100, Luzernerstrasse, Switzerland). After centrifuging the homogenates at 10,000 g for 30 minutes, the protein concentrations were determined by using a BCA Protein Assay Kit (Pierce Biotechnology, Rockford, Ill.). Later, 60 μg of protein preparations were applied on 10% sodium dodecyl sulfate-polyacrylamide gel for electrophoresis and then transferred to polyvinylidene difluoride membranes (Millipore, Billerica, Mass.). The membranes were analysed by using the antibodies against phospho-insulin receptor β (IRβ) (Tyr^1345), phospho-Akt (Ser^473), phosphor-AS160 (Thr^642), AS160 (Cell Signaling Technology, Beverly, Mass.), IRβ, Akt, β-Actin (Santa Cruz Biotechnology, Santa Cruz, Calif.), GLUT2 (Abcam, Cambridge, UK), and PEPCK (a gift from Professor DK Granner), respectively. Chemiluminescence detection and image analysis was performed with UVP-Biochimie Bioimager and Lab Works software (UVP, Upland, Calif.). The intensity of each band was quantified with ImageQuant.

[2] = system: normal mice and mice with type 2 DM; test: Intraperitoneal glucose tolerance test (IPGTT)
Method: as §1
Blood samples were collected from the orbital vascular plexus of the mice under anesthesia. Blood samples were then centrifuged at 13000 rpm for 5 min, and the plasma samples were collected and kept on ice prior to the assay. The plasma glucose concentration was measured by Glucose Kit Reagent (Biosystems S. A., Barcelona, Spain) following the manufacturer's instructions, and the insulin levels were estimated using mouse insulin ELISA kit (Mercodia AB, Uppsala, Sweden).
The mice were maintained under anesthesia throughout the procedure. Glucose (2.0 gkg^−1) was administered intraperitoneally. Blood samples were collected from the orbital vascular plexus at 0, 30, 60, 120 min. The concentrations of the plasma glucose were measured, and the values of AUC were calculated accordantly.

[3] = system: IR, Akt and GLUT2 in liver of T1DM mice; test: Western blot of IR-related signaling mediators in liver after 7-day borapetoside C, alone or with insulin
Method: T1DM mice were induced by a known method. In brief, an intraperitoneal injection of streptozotocin (STZ; Sigma Chemical Co.; St. Louis, Mo.) at 150 mg/kg was performed in mice that were fasted for 48 h. The induction of T1DM was assessed and confirmed when the mice had plasma glucose levels ≧350 mg/dL, accompanied with polyuria, hyperphagia and decreased body weight. The control mice group received an injection of vehicle and then carried out for 4 weeks. T2DM mice were induced by maintaining on a fat-rich chow diet and fructose-sweetened water for 4 weeks from the age of 4-5 weeks according to previous methods. The induction T2DM mice were assessed by measuring fasting plasma glucose levels and confirmed when plasma glucose level was ≧150 mg/dL after a 4-week induction.
After treatment, the mice were sacrificed by cervical dislocation under anesthesia.
The liver was immediately frozen in liquid nitrogen. The liver tissue was preserved at −80° C. before they were used for further assays.
Tissues were homogenized in T-PER® Tissue Protein Extraction Reagent (Pierce Biotechnology, Rockford, Ill.) with Halt™ Protease Inhibitor Single-Use Cocktail (Pierce Biotechnology, Rockford, Ill.). Liver homogenates were prepared by mechanical homogenization (Polytron PT3100, Luzernerstrasse, Switzerland). After centrifuging the homogenates at 10,000 g for 30 min, the supernatants were collected and frozen at −80° C. for further use. The protein concentrations were determined by using a BCA Protein Assay Kit (Pierce Biotechnology, Rockford, Ill.). For western blot analysis, about 60 μg of protein preparations were applied on 10% sodium dodecyl sulfate-polyacrylamide gel electrophoresis and then transferred to polyvinylidene difluoride membranes (Millipore, Billerica, Mass.). The membranes were blocked with 5% (w/v) non-fat dry milk in phosphate buffered saline (PBS) containing 0.1% Tween 20 (PBS-T). After blocking, the blotted membrane was incubated with anti-phospho-insulin receptor β (IRβ) (Tyr^1345), phospho-Akt (Ser^473) (Cell Signaling Technology, Beverly, Mass.), anti-IRβ, Akt, β-Actin (Santa Cruz Biotechnology, Santa Cruz, Calif.), and anti-GLUT2 antibodies (Abcam, Cambridge, UK) in presence of 3% bovine serum albumin (BSA) in PBS-T buffer. Following the incubation, the membranes were washed 3 times with PBS-T for 15 min each and then incubated with the appropriate peroxidase-conjugated secondary antibodies (Santa Cruz. Biotechnology, USA) in PBS-T. After removal of the secondary antibody, blots were washed and developed using the enhanced chemiluminescenece (ECL) western blotting system (Millipore, Billerica, Mass.). The density of the protein bands were quantified using ImageQuant.

[4] = borapetoside C 0.1 mg/kg twice daily, alone or with insulin 1.0 IU/kg twice daily
[5] = borapetoside C 5.0 mg/kg vs insulin 0.5 IU/kg twice daily

Row | SMILES | PEPCK expression in liver [1] | expression of GLUT2 in liver [1] | phosphorylated AS160 in liver [1] | phosphorylated Akt in liver [1] | phosphorylated IR in liver [1] | increase of plasma glucose level at 30 min in IPGTT, compared to the vehicle group ([2]; normal and type 2 DM mice, borapetoside A 0.1, 1 and 10 mgkg^−1, metformin) | area under the curve (AUC) in IPGTT ([2]; normal mice, 0.1 mgkg^−1) | area under the curve (AUC) in IPGTT ([2]; normal mice, 1 mgkg^−1) | area under the curve (AUC) in IPGTT ([2]; normal mice, 10 mgkg^−1) | area under the curve (AUC) in IPGTT ([2]; type 2 DM bearing mice, 0.1 mgkg^−1) | area under the curve (AUC) in IPGTT ([2]; type 2 DM bearing mice, 1 mgkg^−1) | area under the curve (AUC) in IPGTT ([2]; type 2 DM bearing mice, 10 mgkg^−1) | expression of GLUT2 in liver ([3]; 5.0 mg/kg twice daily) | level of phosphorylated Akt in liver ([3]; 5.0 mg/kg twice daily) | level of phosphorylated IR in liver ([3]; 5.0 mg/kg twice daily) | GLUT2 in liver vs vehicle-treated [3, 4] | serine phosphorylation of Akt in liver vs vehicle-treated [3, 4] | tyrosine phosphorylation of IR in liver vs vehicle-treated [3, 4] | phosphorylation of Akt and GLUT2 expression compared with the effect of insulin [3, 5] | phosphorylation of IR compared with the effect of insulin [3, 5]
1 | C[C@@]12C[C@@H](c3ccoc3)OC(=O)[C@@H]1C[C@@H]1OC(=O)[C@@]3(O)[C@@H](O[C@@H]4O[C@H](CO)[C@@H](O)[C@H](O)[C@H]4O)CC[C@@H]2[C@@]13C [Borapetoside A, borapetoside A] | significant decrease | increased | increased | increased | increased | significantly suppressed | 78.8±3.0 % of vehicle control | 69.9±7.1 % of vehicle control | 68.9±3.5 % of vehicle control | 74.9±4.5 % of vehicle control | 71.1±3.2 % of vehicle control | 68.9±1.9 % of vehicle control | – | – | – | – | – | – | – | –
2 | COC(=O)C1=CCC[C@H]2[C@]3(C)C[C@@H](c4ccoc4)OC(=O)[C@@H]3C[C@@H](O[C@@H]3O[C@H](CO)[C@@H](O)[C@H](O)[C@H]3O)[C@@]12C [Borapetoside C, borapetoside C] | – | – | – | – | – | – | – | – | – | – | – | – | increased | increased | increased | not significantly increased | not significantly increased | not significantly increased | less phosphorylation of Akt and GLUT2 expression | more phosphorylation of IR
